From patent US8313729B2, “Integrated photoactive small molecules and uses thereof” (Medibeacon, LLC, priority 2007, dated 2012) come the findings set out here.

One data set in a line: UV/vis absorption in PBS. The class given is physicochemical. Conditions: 100 μM in PBS.
Data set [1] is described as follows: Fluorescence excitation and emission. The class given is physicochemical.

For `N=C(N)c1ccc(CNC(=O)c2nc(N)c(C(=O)NCc3ccc(C(=N)N)cc3)nc2N)cc1` [Example 1, 3,6-diamino-N2,N5-bis(4-carbamimidoylbenzyl)pyrazine-2,5-dicarboxamide], the “UV/vis λabs” value in “UV/vis absorption in PBS” worked out at 437 nm. In addition, in data set [1] (100 nM), the “Fluorescence λem” value was 554 nm and the “Fluorescence λex” value turned out to be 428 nm.

On to `Nc1nc(C(=O)NCC(O)CO)c(N)nc1C(=O)NCC(O)CO` (stereo not drawn) [Example 3, 3,6-diamino-N^2,N^5-bis(2,3-dihydroxypropyl)pyrazine-2,5-dicarboxamide], for which the “UV/vis λabs” value in the data set “UV/vis absorption in PBS” was 434 nm. Further, in data set [1] (concentration not given), the “Fluorescence λem” value is recorded as 559 nm and the “Fluorescence λex” value is recorded as 449 nm.

With `Nc1nc(C(=O)N[C@@H](CO)C(=O)O)c(N)nc1C(=O)N[C@@H](CO)C(=O)O` [Example 4, 3,6-Diamino-N^2,N^5-bis(serine)-pyrazine-2,5-dicarboxamide], the “UV/vis λabs” value in “UV/vis absorption in PBS” was 432 nm. Further, in data set [1] (concentration not given), the “Fluorescence λem” value stood at 558 nm and the “Fluorescence λex” value was 432 nm.
